The text below walks through data of US10259808B2 (Genentech, Inc., priority 2015, dated 2019).

A word on the IC50: it is the midpoint of a concentration-inhibition curve. Read a low IC50 as higher potency.

The assay concerns the target T1, RORc ligand binding domain (Homo sapiens, UniProt P51449).
T1 sequence (P51449 269-508 limits assumed): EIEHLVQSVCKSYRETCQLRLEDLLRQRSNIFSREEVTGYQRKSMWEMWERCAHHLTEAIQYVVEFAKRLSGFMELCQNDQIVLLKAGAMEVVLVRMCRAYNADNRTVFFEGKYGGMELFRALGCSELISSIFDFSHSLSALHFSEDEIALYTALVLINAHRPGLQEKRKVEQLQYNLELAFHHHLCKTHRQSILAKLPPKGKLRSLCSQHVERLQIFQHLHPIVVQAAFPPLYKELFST
The experiment in a line: In vitro RORc ligand binding assay (25-[3H]hydroxycholesterol displacement).
As for `C[C@H]1CC[C@H](c2ccccc2)S(=O)(=O)N1Cc1cc(F)c(C2(NCc3cnccn3)COC2)cc1F` [Example 89, 3-[2,5-difluoro-4-[[(3S,6R)-3-methyl-1,1-dioxo-6-phenyl-thiazinan-2-yl]methyl]phenyl]-N-(pyrazin-2-ylmethyl)oxetan-3-amine], the IC50 was found to be 7.1 nM.
In turn, `CNc1nnc(C2(c3cc(F)c(CN4[C@@H](C)CC[C@H](c5ccccc5)S4(=O)=O)cc3F)CCOCC2)o1` [Example 90, 5-[4-[2,5-difluoro-4-[[(3S,6R)-3-methyl-1,1-dioxo-6-phenyl-thiazinan-2-yl]methyl]phenyl]tetrahydropyran-4-yl]-N-methyl-1,3,4-oxadiazol-2-amine] displayed an IC50 of 13.7 nM.
Then `C[C@H]1CC[C@H](c2ccccc2)S(=O)(=O)N1Cc1cc(F)c(C2(NCc3ccn(C)n3)CCOCC2)cc1F` [Example 91, 4-[2,5-difluoro-4-[[(3S,6R)-3-methyl-1,1-dioxo-6-phenyl-thiazinan-2-yl]methyl]phenyl]-N-[(1-methylpyrazol-3-yl)methyl]tetrahydropyran-4-amine], with 82.6 nM; and `C[C@H]1CC[C@H](c2ccccc2)S(=O)(=O)N1Cc1cc(F)c(C2(NCc3nnc[nH]3)CCOCC2)cc1F` [Example 92, 4-[2,5-difluoro-4-[[(3S,6R)-3-methyl-1,1-dioxo-6-phenyl-thiazinan-2-yl]methyl]phenyl]-N-(4H-1,2,4-triazol-3-ylmethyl)tetrahydropyran-4-amine], with 23.6 nM; and `Cc1cc(C(=O)NC2(c3cc(F)c(CN4[C@@H](C)CC[C@H](c5ccccc5)S4(=O)=O)cc3F)CCOCC2)no1` [Example 93, N-[4-[2,5-difluoro-4-[[(3,6R)-3-methyl-1,1-dioxo-6-phenyl-thiazinan-2-yl]methyl]phenyl]tetrahydropyran-4-yl]-5-methyl-isoxazole-3-carboxamide], with 44 nM.
Then `C[C@H]1CC[C@H](c2ccccc2)S(=O)(=O)N1Cc1cc(F)c(C2(NC(=O)Cc3ccon3)COC2)cc1F` [Example 94, N-[3-[2,5-difluoro-4-[[(3S,6R)-3-methyl-1,1-dioxo-6-phenyl-thiazinan-2-yl]methyl]phenyl]oxetan-3-yl]-2-isoxazol-3-yl-acetamide], with 17.9 nM.
As for `Cc1cc(CNC2(c3cc(F)c(CN4[C@@H](C)CC[C@H](c5ccccc5)S4(=O)=O)cc3F)COC2)no1` [Example 95, 3-[2,5-difluoro-4-[[(3S,6R)-3-methyl-1,1-dioxo-6-phenyl-thiazinan-2-yl]methyl]phenyl]-N-[(5-methylisoxazol-3-yl)methyl]oxetan-3-amine], the IC50 was 20.6 nM.
Molecule `C[C@H]1CC[C@H](c2ccccc2)S(=O)(=O)N1Cc1cc(F)c(C2(NC(=O)c3cocn3)COC2)cc1F` [Example 96, N-[3-[2,5-difluoro-4-[[(3S,6R)-3-methyl-1,1-dioxo-6-phenyl-thiazinan-2-yl]methyl]phenyl]oxetan-3-yl]oxazole-4-carboxamide] showed an IC50 of 35.6 nM.
On to `C[C@H]1CC[C@H](c2ccccc2)S(=O)(=O)N1Cc1cc(F)c(C2(NC(=O)c3ccon3)COC2)cc1F` [Example 97, N-[3-[2,5-difluoro-4-[[(3S,6R)-3-methyl-1,1-dioxo-6-phenyl-thiazinan-2-yl]methyl]phenyl]oxetan-3-yl]isoxazole-3-carboxamide], for which the IC50 was found to be 22.4 nM.
For `C[C@H]1CC[C@H](c2ccccc2)S(=O)(=O)N1Cc1cc(F)c(C2(N3C[C@H](CO)OC3=O)CCOCC2)cc1F` [Example 98, (5R)-3-[4-[2,5-difluoro-4-[[(3S,6R)-3-methyl-1,1-dioxo-6-phenyl-thiazinan-2-yl]methyl]phenyl]tetrahydropyran-4-yl]-5-(hydroxymethyl)oxazolidin-2-one] the value was 67.6 nM; for `C[C@H]1CC[C@H](c2ccccc2)S(=O)(=O)N1Cc1cc(F)c(C2(N3C[C@@H](CO)OC3=O)CCOCC2)cc1F` [Example 99, (5S)-3-[4-[2,5-difluoro-4-[[(3S,6R)-3-methyl-1,1-dioxo-6-phenyl-thiazinan-2-yl]methyl]phenyl]tetrahydropyran-4-yl]-5-(hydroxymethyl)oxazolidin-2-one], 58.7 nM; for `C[C@H]1CC[C@H](c2ccccc2)S(=O)(=O)N1Cc1cc(F)c(C2(NCc3cnco3)COC2)cc1F` [Example 100, 3-[2,5-difluoro-4-[[(3S,6R)-3-methyl-1,1-dioxo-6-phenyl-thiazinan-2-yl]methyl]phenyl]-N-(oxazol-5-ylmethyl)oxetan-3-amine], 34.1 nM.
Then `C[C@H]1CC[C@H](c2ccccc2)S(=O)(=O)N1Cc1cc(F)c(C2(Nc3ncccn3)COC2)cc1F` [Example 101, N-[3-[2,5-difluoro-4-[[(3S,6R)-3-methyl-1,1-dioxo-6-phenyl-thiazinan-2-yl]methyl]phenyl]oxetan-3-yl]pyrimidin-2-amine], with 60.7 nM.
For `C[C@H]1CC[C@H](c2ccccc2)S(=O)(=O)N1Cc1cc(F)c(C2(N3CCOC3=O)CCOCC2)cc1F` [Example 102, 3-[4-[2,5-difluoro-4-[[(3S,6R)-3-methyl-1,1-dioxo-6-phenyl-thiazinan-2-yl]methyl]phenyl]tetrahydropyran-4-yl]oxazolidin-2-one] the value was 55.3 nM; for `C[C@H]1CC[C@H](c2ccccc2)S(=O)(=O)N1Cc1cc(F)c(C2(NCc3ccon3)COC2)cc1F` [Example 103, 3-[2,5-difluoro-4-[[(3S,6R)-3-methyl-1,1-dioxo-6-phenyl-thiazinan-2-yl]methyl]phenyl]-N-(isoxazol-3-ylmethyl)oxetan-3-amine], 1.5 nM; for `C[C@H]1CC[C@H](c2ccccc2)S(=O)(=O)N1Cc1cc(F)c(C2(NC(=O)Cc3ccon3)CCOCC2)cc1F` [Example 104, N-[4-[2,5-difluoro-4-[[(3S,6R)-3-methyl-1,1-dioxo-6-phenyl-thiazinan-2-yl]methyl]phenyl]tetrahydropyran-4-yl]-2-isoxazol-3-yl-acetamide], 2.6 nM.
In turn, `C[C@H]1CC[C@H](c2ccccc2)S(=O)(=O)N1Cc1cc(F)c(C2(Nc3cnccn3)COC2)cc1F` [Example 105, N-[3-[2,5-difluoro-4-[[(3S,6R)-3-methyl-1,1-dioxo-6-phenyl-thiazinan-2-yl]methyl]phenyl]oxetan-3-yl]pyrazin-2-amine] registered an IC50 of 2.2 nM.
In the case of `C[C@H]1CC[C@H](c2ccccc2)S(=O)(=O)N1Cc1cc(F)c(C2(NC(=O)c3cc(=O)[nH]o3)COC2)cc1F` [Example 106, N-[3-[2,5-difluoro-4-[[(3S,6R)-3-methyl-1,1-dioxo-6-phenyl-thiazinan-2-yl]methyl]phenyl]oxetan-3-yl]-3-oxo-isoxazole-5-carboxamide], the IC50 came to 5.1 nM.
Then `C[C@H]1CC[C@H](c2ccccc2)S(=O)(=O)N1Cc1cc(F)c(C2(NC(=O)c3ccon3)CCOCC2)cc1F` [Example 107, N-[4-[2,5-difluoro-4-[[(3S,6R)-3-methyl-1,1-dioxo-6-phenyl-thiazinan-2-yl]methyl]phenyl]tetrahydropyran-4-yl]isoxazole-3-carboxamide], with 2.7 nM; and `Cc1cncc(C(=O)NC2(c3cc(F)c(CN4[C@@H](C)CC[C@H](c5ccccc5)S4(=O)=O)cc3F)CCOCC2)n1` [Example 108, N-[4-[2,5-difluoro-4-[[(3S,6R)-3-methyl-1,1-dioxo-6-phenyl-thiazinan-2-yl]methyl]phenyl]tetrahydropyran-4-yl]-6-methyl-pyrazine-2-carboxamide], with 19.2 nM.
`Cc1cncc(C(=O)NC2(c3cc(F)c(CN4[C@@H](C)CC[C@H](c5ccccc5)S4(=O)=O)cc3F)COC2)n1` [Example 109, N-[3-[2,5-difluoro-4-[[(3S,6R)-3-methyl-1,1-dioxo-6-phenyl-thiazinan-2-yl]methyl]phenyl]oxetan-3-yl]-6-methyl-pyrazine-2-carboxamide] registered an IC50 of 112 nM.
Then `Cc1cc(COC2(c3cc(F)c(CN4[C@@H](C)CC[C@H](c5ccccc5)S4(=O)=O)cc3F)COC2)no1` [Example 110, (3S,6R)-2-[[2,5-difluoro-4-[3-[(5-methylisoxazol-3-yl)methoxy]oxetan-3-yl]phenyl]methyl]-3-methyl-6-phenyl-thiazinane 1,1-dioxide], with 1.3 nM.
For `C[C@H]1CC[C@H](c2ccccc2)S(=O)(=O)N1Cc1cc(F)c(C2(NC[C@@H]3CCC(=O)N3)COC2)cc1F` [Example 111, (5S)-5-[[[3-[2,5-difluoro-4-[[(3S,6R)-3-methyl-1,1-dioxo-6-phenyl-thiazinan-2 yl]methyl]phenyl]oxetan-3-yl]amino]methyl]pyrrolidin-2-one] the value was 89.8 nM; for `COC1(OC)CC(c2nnc[nH]2)(c2cc(F)c(CN3[C@@H](C)CC[C@H](c4ccccc4)S3(=O)=O)cc2F)C1` [Example 112, (3S,6R)-2-[[4-[3,3-dimethoxy-1-(4H-1,2,4-triazol-3-yl)cyclobutyl]-2,5-difluoro-phenyl]methyl]-3-methyl-6-phenyl-thiazinane 1,1-dioxide], 4.6 nM; for `C[C@H]1CC[C@H](c2ccccc2)S(=O)(=O)N1Cc1cc(F)c(C2(c3nnc[nH]3)CC(=O)C2)cc1F` [Example 113, 3-[2,5-difluoro-4-[[(3S,6R)-3-methyl-1,1-dioxo-6-phenyl-thiazinan-2-yl]methyl]phenyl]-3-(4H-1,2,4-triazol-3-yl)cyclobutanone], 8.1 nM.
For `C[C@H]1CC[C@H](c2ccccc2)S(=O)(=O)N1Cc1cc(F)c(C2(c3nnc[nH]3)CC(F)(F)C2)cc1F` [Example 114, (3S,6R)-2-[[4-[3,3-difluoro-1-(4H-1,2,4-triazol-3-yl)cyclobutyl]-2,5-difluoro-phenyl]methyl]-3-methyl-6-phenyl-thiazinane 1,1-dioxide] the value was 3.6 nM.
